In article doi:10.1101/2020.10.13.337584v1 (bioRxiv, 2020):

Assays:
[1] = Health-related side-effects after daily intranasal administration; assay type: in vivo; settings: 0.1 mg/Kg intranasal daily for 10 days, BALB/C mice
[2] = tested on: SARS-CoV2 (SARS CoV-2 USA_WA1/2020) in VERO E6 cells; assay type: cell-based

CC(C)[C@H](NC(=O)CNC(=O)[C@H](CC(N)=O)NC(=O)[C@@H](NC(=O)[C@@H]1CCCN1C(=O)[C@H](CCC(N)=O)NC(=O)[C@H](Cc1ccccc1)NC(=O)CNC(=O)[C@H](Cc1ccc(O)cc1)NC(=O)CCCC[C@@H]1SC[C@@H]2NC(=O)N[C@@H]21)[C@@H](C)O)C(=O)NCC(=O)N[C@@H](Cc1ccc(O)cc1)C(=O)N[C@@H](CCC(N)=O)C(=O)N1CCC[C@H]1C(=O)O [KEpTide 1]
Skin roughness or diarrhea at the end of day 10 [1]: did not see other health issue
Effect on heart rate ([1]; n=6 per group, p = 0.0758): did not cause any loss
Effect on respiratory health (oxygen saturation) ([1]; n=6 per group, p = 0.3217): did not cause any loss
Effect on body temperature ([1]; n=6 per group, p = 0.5541): did not cause any loss
Grey density (1:20) of crystal violet staining of agar monolayer [2]: 34 ± 32.73
